Data: the supplement of paper PMC10307832

Tests used:
Assay in all cases: relative viability (nuclei count vs DMSO), 5 days (fraction); higher = more cells survive
BX 795 = compound: O=C(NCCCNc1nc(Nc2cccc(NC(=O)N3CCCC3)c2)ncc1I)c1cccs1 [BX 795]
Method in brief: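 For viability, nuclei in each treated well were divided by nuclei in vehicle wells and the median across plates was taken. Lung cancer cell lines in 1536-well plates were pinned with five library-drug doses (not always all listed) spaced by √10, cultured 5 days without medium change, and imaged at 4× after Hoechst staining, with plates passing only at control CV below 25% and at least one doubling.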

BX 795 + Foretinib = compound: O=C(NCCCNc1nc(Nc2cccc(NC(=O)N3CCCC3)c2)ncc1I)c1cccs1 [BX 795] + COc1cc2c(Oc3ccc(NC(=O)C4(C(=O)Nc5ccc(F)cc5)CC4)cc3F)ccnc2cc1OCCCN1CCOCC1 [Foretinib] (partner 0.25 µM)
Method in brief: (§1)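 Lung cancer cell lines, seeded in 1536-well plates, were treated the following day by pin tool with a single drug or with five library-drug doses (not always all listed) in √10 steps on top of a fixed anchor-drug dose. Cells were fixed and nuclei stained in one step after 5 days, and nuclei were counted. Relative viability is the nuclei count for treated wells divided by that for vehicle wells, reported as medians of duplicate plates.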

BX 795 + Tozasertib = compound: O=C(NCCCNc1nc(Nc2cccc(NC(=O)N3CCCC3)c2)ncc1I)c1cccs1 [BX 795] + Cc1cc(Nc2cc(N3CCN(C)CC3)nc(Sc3ccc(NC(=O)C4CC4)cc3)n2)n[nH]1 [Tozasertib] (partner 0.1 µM)
Method in brief: as §1

BX 795 + OSI-027 = compound: O=C(NCCCNc1nc(Nc2cccc(NC(=O)N3CCCC3)c2)ncc1I)c1cccs1 [BX 795] + COc1cccc2cc(-c3nc([C@H]4CC[C@H](C(=O)O)CC4)n4ncnc(N)c34)[nH]c12 [OSI-027] (partner 0.5 µM)
Method in brief: as §1

BX 795 + Luminespib = compound: O=C(NCCCNc1nc(Nc2cccc(NC(=O)N3CCCC3)c2)ncc1I)c1cccs1 [BX 795] + CCNC(=O)c1noc(-c2cc(C(C)C)c(O)cc2O)c1-c1ccc(CN2CCOCC2)cc1 [Luminespib] (partner 0.01 µM)
Method in brief: as §1

BX 795 + Phenformin = compound: O=C(NCCCNc1nc(Nc2cccc(NC(=O)N3CCCC3)c2)ncc1I)c1cccs1 [BX 795] + N=C(N)NC(=N)NCCc1ccccc1 [Phenformin] (partner 250 µM)
Method in brief: as §1

BX 795 + Dasatinib = compound: O=C(NCCCNc1nc(Nc2cccc(NC(=O)N3CCCC3)c2)ncc1I)c1cccs1 [BX 795] + Cc1nc(Nc2ncc(C(=O)Nc3c(C)cccc3Cl)s2)cc(N2CCN(CCO)CC2)n1 [Dasatinib] (partner 0.075 µM)
Method in brief: as §1

BX 795 + Olaparib = compound: O=C(NCCCNc1nc(Nc2cccc(NC(=O)N3CCCC3)c2)ncc1I)c1cccs1 [BX 795] + O=C(c1cc(Cc2n[nH]c(=O)c3ccccc23)ccc1F)N1CCN(C(=O)C2CC2)CC1 [Olaparib] (partner 8 µM)
Method in brief: as §1

BX 795 + Pemetrexed = compound: O=C(NCCCNc1nc(Nc2cccc(NC(=O)N3CCCC3)c2)ncc1I)c1cccs1 [BX 795] + Nc1nc2[nH]cc(CCc3ccc(C(=O)N[C@@H](CCC(=O)O)C(=O)O)cc3)c2c(=O)[nH]1 [Pemetrexed] (partner 0.2 µM)
Method in brief: as §1

BX 795 + Trametinib = compound: O=C(NCCCNc1nc(Nc2cccc(NC(=O)N3CCCC3)c2)ncc1I)c1cccs1 [BX 795] + CC(=O)Nc1cccc(-n2c(=O)n(C3CC3)c(=O)c3c(Nc4ccc(I)cc4F)n(C)c(=O)c(C)c32)c1 [Trametinib] (partner 0.02 µM)
Method in brief: as §1

BX 795 + Palbociclib = compound: O=C(NCCCNc1nc(Nc2cccc(NC(=O)N3CCCC3)c2)ncc1I)c1cccs1 [BX 795] + CC(=O)c1c(C)c2cnc(Nc3ccc(N4CCNCC4)cn3)nc2n(C2CCCC2)c1=O [Palbociclib] (partner 0.5 µM)
Method in brief: as §1

BX 795 + Decitabine = compound: O=C(NCCCNc1nc(Nc2cccc(NC(=O)N3CCCC3)c2)ncc1I)c1cccs1 [BX 795] + Nc1ncn([C@H]2C[C@H](O)[C@@H](CO)O2)c(=O)n1 [Decitabine] (partner 2 µM)
Method in brief: as §1

BX 795 + Vorinostat = compound: O=C(NCCCNc1nc(Nc2cccc(NC(=O)N3CCCC3)c2)ncc1I)c1cccs1 [BX 795] + O=C(CCCCCCC(=O)Nc1ccccc1)NO [Vorinostat] (partner 1 µM)
Method in brief: as §1

BX 795 + AZD7762 = compound: O=C(NCCCNc1nc(Nc2cccc(NC(=O)N3CCCC3)c2)ncc1I)c1cccs1 [BX 795] + NC(=O)Nc1cc(-c2cccc(F)c2)sc1C(=O)N[C@H]1CCCNC1 [AZD7762] (partner 0.2 µM)
Method in brief: as §1

NCI-H1623
relative viability (BX 795; 0.04 µM): 1.15
relative viability (BX 795; 0.1265 µM): 0.972
relative viability (BX 795; 0.4 µM): 0.989
relative viability (BX 795; 1.265 µM): 0.892
relative viability (BX 795 + Foretinib; first compound 0.04 µM): 0.913
relative viability (BX 795 + Foretinib; first compound 0.1265 µM): 0.952
relative viability (BX 795 + Foretinib; first compound 0.4 µM): 0.88
relative viability (BX 795 + Foretinib; first compound 1.265 µM): 0.892
relative viability (BX 795 + Tozasertib; first compound 0.04 µM): 0.429
relative viability (BX 795 + Tozasertib; first compound 0.1265 µM): 0.386
relative viability (BX 795 + Tozasertib; first compound 0.4 µM): 0.392
relative viability (BX 795 + Tozasertib; first compound 1.265 µM): 0.461
relative viability (BX 795 + OSI-027; first compound 0.04 µM): 0.458
relative viability (BX 795 + OSI-027; first compound 0.1265 µM): 0.421
relative viability (BX 795 + OSI-027; first compound 0.4 µM): 0.402
relative viability (BX 795 + OSI-027; first compound 1.265 µM): 0.466
relative viability (BX 795 + Luminespib; first compound 0.04 µM): 0.598
relative viability (BX 795 + Luminespib; first compound 0.1265 µM): 0.511
relative viability (BX 795 + Luminespib; first compound 0.4 µM): 0.5
relative viability (BX 795 + Luminespib; first compound 1.265 µM): 0.572
relative viability (BX 795 + Phenformin; first compound 0.04 µM): 0.611
relative viability (BX 795 + Phenformin; first compound 0.1265 µM): 0.568
relative viability (BX 795 + Phenformin; first compound 0.4 µM): 0.491
relative viability (BX 795 + Phenformin; first compound 1.265 µM): 0.516
relative viability (BX 795 + Dasatinib; first compound 0.04 µM): 0.537
relative viability (BX 795 + Dasatinib; first compound 0.1265 µM): 0.572
relative viability (BX 795 + Dasatinib; first compound 0.4 µM): 0.533
relative viability (BX 795 + Dasatinib; first compound 1.265 µM): 0.512

NCI-H1648
relative viability (BX 795; 0.04 µM): 0.872
relative viability (BX 795; 0.1265 µM): 0.804
relative viability (BX 795; 0.4 µM): 0.972
relative viability (BX 795; 1.265 µM): 1.01
relative viability (BX 795 + Tozasertib; first compound 0.04 µM): 0.611
relative viability (BX 795 + Tozasertib; first compound 0.1265 µM): 0.466
relative viability (BX 795 + Tozasertib; first compound 0.4 µM): 0.638
relative viability (BX 795 + Tozasertib; first compound 1.265 µM): 0.378
relative viability (BX 795 + OSI-027; first compound 0.04 µM): 0.258
relative viability (BX 795 + OSI-027; first compound 0.1265 µM): 0.214
relative viability (BX 795 + OSI-027; first compound 0.4 µM): 0.265
relative viability (BX 795 + OSI-027; first compound 1.265 µM): 0.247
relative viability (BX 795 + Olaparib; first compound 0.04 µM): 0.869
relative viability (BX 795 + Olaparib; first compound 0.1265 µM): 1.51
relative viability (BX 795 + Olaparib; first compound 0.4 µM): 1.15
relative viability (BX 795 + Olaparib; first compound 1.265 µM): 1.11
relative viability (BX 795 + Pemetrexed; first compound 0.04 µM): 0.727
relative viability (BX 795 + Pemetrexed; first compound 0.1265 µM): 0.824
relative viability (BX 795 + Pemetrexed; first compound 0.4 µM): 0.834
relative viability (BX 795 + Pemetrexed; first compound 1.265 µM): 1.02
relative viability (BX 795 + Trametinib; first compound 0.04 µM): 0.526
relative viability (BX 795 + Trametinib; first compound 0.1265 µM): 0.451
relative viability (BX 795 + Trametinib; first compound 0.4 µM): 0.575
relative viability (BX 795 + Trametinib; first compound 1.265 µM): 0.481
relative viability (BX 795 + Palbociclib; first compound 0.04 µM): 0.267
relative viability (BX 795 + Palbociclib; first compound 0.1265 µM): 0.264
relative viability (BX 795 + Palbociclib; first compound 0.4 µM): 0.411
relative viability (BX 795 + Palbociclib; first compound 1.265 µM): 0.299
relative viability (BX 795 + Decitabine; first compound 0.04 µM): 0.584
relative viability (BX 795 + Decitabine; first compound 0.1265 µM): 0.442
relative viability (BX 795 + Decitabine; first compound 0.4 µM): 0.523
relative viability (BX 795 + Decitabine; first compound 1.265 µM): 0.616
relative viability (BX 795 + Vorinostat; first compound 0.04 µM): 0.441
relative viability (BX 795 + Vorinostat; first compound 0.1265 µM): 0.525
relative viability (BX 795 + Vorinostat; first compound 0.4 µM): 0.668
relative viability (BX 795 + Vorinostat; first compound 1.265 µM): 0.535
relative viability (BX 795 + AZD7762; first compound 0.04 µM): 0.833
relative viability (BX 795 + AZD7762; first compound 0.1265 µM): 0.756
relative viability (BX 795 + AZD7762; first compound 0.4 µM): 0.791
relative viability (BX 795 + AZD7762; first compound 1.265 µM): 0.911
